Data: patent US20110269680A1 (PANACEA BIOTEC LIMITED, priority 2008, published 2011)
Like-named read-outs stand apart in the source and are kept apart here. Each block holds one compound with its values, some of them ahead of it. Numbered stars: 1 amine (or outer) side, 2 acyl side, 3 side chain; on linkers, the order of the positions; unused ones are H or OH. Square brackets hold non-standard residues; d marks the D form. Peptide text beside a SMILES is read from it. X1 = CO[C@H]1O[C@H](C(=O)[*:2])[C@@H](O)[C@H](O)[C@H]1N[*:1]

What was measured:
NEP 24.11 = biological target: T1, NEP 24.11 (Homo sapiens, UniProt P08473); experiment: NEP 24.11 resistant (degradation) assay; format: in vitro ADME; conditions: for metabolised at 54 h, 20 μM: pH 7.4, NEP 24.11, after 54 hrs, read-out: % Degradation (after 54 hrs)
T1 construct: purchased Calbiochem
T1 sequence (P08473 whole entry): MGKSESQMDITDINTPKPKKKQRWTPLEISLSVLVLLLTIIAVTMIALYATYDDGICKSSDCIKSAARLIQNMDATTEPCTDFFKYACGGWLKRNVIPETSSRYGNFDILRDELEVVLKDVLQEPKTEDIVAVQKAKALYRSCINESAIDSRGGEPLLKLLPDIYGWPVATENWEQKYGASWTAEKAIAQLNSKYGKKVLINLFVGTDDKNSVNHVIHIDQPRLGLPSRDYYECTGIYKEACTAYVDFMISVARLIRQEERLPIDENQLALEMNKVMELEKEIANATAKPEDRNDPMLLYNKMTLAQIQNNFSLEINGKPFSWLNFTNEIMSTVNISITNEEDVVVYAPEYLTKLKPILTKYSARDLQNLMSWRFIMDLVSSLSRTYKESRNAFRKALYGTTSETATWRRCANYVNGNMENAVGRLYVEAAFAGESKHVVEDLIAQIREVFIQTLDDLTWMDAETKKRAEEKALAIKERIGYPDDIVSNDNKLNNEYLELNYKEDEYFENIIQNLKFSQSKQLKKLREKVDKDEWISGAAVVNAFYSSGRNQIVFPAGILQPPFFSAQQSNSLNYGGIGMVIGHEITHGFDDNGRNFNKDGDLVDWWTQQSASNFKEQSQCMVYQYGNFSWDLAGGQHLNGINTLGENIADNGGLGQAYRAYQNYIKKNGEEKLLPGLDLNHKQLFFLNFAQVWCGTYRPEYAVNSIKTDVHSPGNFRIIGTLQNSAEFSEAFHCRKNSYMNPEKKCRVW
Procedure: The aliquots were analyzed for the amount of undegraded peptide concentration at different time intervals using RP-HPLC by peak area integration. T1/2 of each peptide was determined from the graph plotted between peak area of undegraded peptide vs time.

DPP-IV = biological target: T2, DPP-IV (Homo sapiens, UniProt P27487); experiment: DPP-IV resistant assay; format: in vitro ADME
T2 construct: purchased Sigma-Aldrich
T2 sequence (P27487 whole entry, species assumed): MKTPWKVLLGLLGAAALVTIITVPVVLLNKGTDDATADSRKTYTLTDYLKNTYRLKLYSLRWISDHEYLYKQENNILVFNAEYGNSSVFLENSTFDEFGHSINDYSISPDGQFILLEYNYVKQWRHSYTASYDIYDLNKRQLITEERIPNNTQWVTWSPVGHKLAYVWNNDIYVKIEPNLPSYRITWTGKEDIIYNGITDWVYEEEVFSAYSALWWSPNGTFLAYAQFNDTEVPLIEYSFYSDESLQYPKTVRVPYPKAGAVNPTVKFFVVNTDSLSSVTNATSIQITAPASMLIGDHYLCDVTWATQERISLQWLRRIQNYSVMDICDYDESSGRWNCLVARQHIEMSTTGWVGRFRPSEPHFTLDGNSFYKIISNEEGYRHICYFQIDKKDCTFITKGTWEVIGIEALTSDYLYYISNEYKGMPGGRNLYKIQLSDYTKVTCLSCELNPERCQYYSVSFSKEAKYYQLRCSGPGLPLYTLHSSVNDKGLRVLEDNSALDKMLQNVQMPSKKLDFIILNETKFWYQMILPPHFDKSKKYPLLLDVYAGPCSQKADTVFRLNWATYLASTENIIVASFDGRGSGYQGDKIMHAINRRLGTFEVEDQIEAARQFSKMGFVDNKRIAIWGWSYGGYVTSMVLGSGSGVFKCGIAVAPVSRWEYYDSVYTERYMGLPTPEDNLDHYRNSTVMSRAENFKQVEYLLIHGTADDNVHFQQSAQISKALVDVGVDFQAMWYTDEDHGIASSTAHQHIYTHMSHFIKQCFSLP
Procedure: 20 μM of peptides of the present invention (Sequence IDs—01, 02, 03, 04, 05, 06, 11, 12 and 13) were incubated with 60 mU/2 ml of DPP-IV (Sigma-Aldrich) enzyme at room temperature (22-24° C.) in 20 mM Tris HCl buffer, pH 8.0. The aliquots were analyzed for the amount of undegraded peptide concentration at different time intervals by RP-HPLC. The peak area integration was used to determine the amount of undegraded peptide (U.S. Pat. No. 7,067,488). T1/2 of each peptide was determined from the graph plotted between peak area of undegraded peptide vs. time. The peak area of DPP-IV untreated peptide in above mentioned buffer condition of same concentration was considered as time zero. […]

- half-life at 20 μM (NEP 24.11; buffer, 20 μM peptide, 1 mg/ml NEP 24.11, 37° C., 50 mM Hepes, 50 mM NaCl, pH 7.4, RP-HPLC, read-out: T1/2 (converted)): 1650 min
- metabolised at 54 h, 20 μM (NEP 24.11; isolated NEP 24.11 enzyme (Calbiochem)): 93.5%
- Percentage degradation in hrs (DPP-IV): 24.93%
- half-life at 20 μM (DPP-IV; pH 8): > 1440 min
Structure (SMILES): CC[C@H](C)[C@H](NC(=O)[C@H](Cc1ccccc1)NC(=O)[C@H](CC(C)C)NC(=O)[C@H](CCCCN)NC(=O)[C@H](C)NC(=O)[C@H](C)NC(=O)[C@H](CCC(N)=O)NC(=O)CNC(=O)[C@H](CCC(=O)O)NC(=O)[C@H](CCC(N)=O)NC(=O)[C@H](Cc1ccc(O)cc1)NC(=O)[C@H](CO)NC(=O)[C@H](CC(C)C)NC(=O)[C@@H](NC(=O)[C@H](CC(=O)O)NC(=O)[C@H](CO)NC(=O)[C@@H](NC(=O)[C@H](Cc1ccccc1)NC(=O)[C@@H](NC(=O)CNC(=O)[C@H]1O[C@H](OC)[C@H](NC(=O)[C@@H](N)Cc2c[nH]cn2)[C@@H](O)[C@@H]1O)[C@@H](C)O)[C@@H](C)O)C(C)C)C(=O)N[C@@H](CCC(=O)O)C(=O)N[C@@H](Cc1c[nH]c2ccccc12)C(=O)N[C@@H](CC(C)C)C(=O)N[C@H](C(=O)N[C@@H](CCCCN)C(=O)NCC(=O)N[C@@H](CCCNC(=N)N)C(N)=O)C(C)C [Seq ID No. 12] (H-H[X1]GTFTSDVLSYQEGQAAKLFIEWLVKGR-NH2; N-terminus assumed)

Structure (SMILES): CC[C@H](C)[C@H](NC(=O)[C@H](Cc1ccccc1)NC(=O)[C@H](CCC(=O)O)NC(=O)[C@H](CCCCN)NC(=O)[C@H](C)NC(=O)[C@H](C)NC(=O)[C@H](CCC(N)=O)NC(=O)CNC(=O)[C@H](CCC(=O)O)NC(=O)[C@H](CC(C)C)NC(=O)[C@H](Cc1ccc(O)cc1)NC(=O)[C@H](CO)NC(=O)[C@H](CO)NC(=O)[C@@H](NC(=O)[C@H](CC(=O)O)NC(=O)[C@H](CO)NC(=O)[C@@H](NC(=O)[C@H](Cc1ccccc1)NC(=O)[C@@H](NC(=O)CNC(=O)[C@H](CCC(=O)O)NC(=O)c1ccc(CNC(=O)[C@@H](N)Cc2c[nH]cn2)o1)[C@@H](C)O)[C@@H](C)O)C(C)C)C(=O)N[C@@H](C)C(=O)N[C@@H](Cc1c[nH]c2ccccc12)C(=O)N[C@@H](CC(C)C)C(=O)N[C@H](C(=O)N[C@@H](CCCCN)C(=O)NC(C)(C)C(=O)N[C@@H](CCCNC(=N)N)C(N)=O)C(C)C [Seq ID No. 11]
- half-life at 20 μM (DPP-IV; 20 μM peptide, 60 mU/2 ml DPP-IV, room temperature (22-24° C.), 20 mM Tris HCl pH 8.0, RP-HPLC, read-out: T1/2 in Hrs): > 1440 min
- Percentage degradation in hrs (DPP-IV; DPP-IV, in 24 hrs): 20%
- half life against DPP-IV compared with parent GLP-1 molecules (DPP-IV; versus GLP-1(7-37) parent and GLP-1(7-36) parent): better half lives than the parent GLP-1 molecules

Structure (SMILES): CC[C@H](C)[C@H](NC(=O)[C@H](Cc1ccccc1)NC(=O)[C@H](CCC(=O)O)NC(=O)[C@H](CCCCN)NC(=O)[C@H](C)NC(=O)[C@H](C)NC(=O)[C@H](CCC(N)=O)NC(=O)CNC(=O)[C@H](CCC(=O)O)NC(=O)[C@H](CC(C)C)NC(=O)[C@H](Cc1ccc(O)cc1)NC(=O)[C@H](CO)NC(=O)[C@H](CO)NC(=O)[C@@H](NC(=O)[C@H](CC(=O)O)NC(=O)[C@H](CO)NC(=O)[C@@H](NC(=O)[C@H](Cc1ccccc1)NC(=O)[C@@H](NC(=O)CNC(=O)[C@H](CCC(=O)O)NC(=O)[C@H](C)NC(=O)[C@@H](N)Cc1c[nH]cn1)[C@@H](C)O)[C@@H](C)O)C(C)C)C(=O)N[C@@H](C)C(=O)N[C@@H](Cc1c[nH]c2ccccc12)C(=O)N[C@@H](CC(C)C)C(=O)N[C@H](C(=O)N[C@@H](CCCCN)C(=O)NCC(=O)N[C@@H](CCCNC(=N)N)C(N)=O)C(C)C [GLP-1(7-36) parent, GLP-1(7-36), reference compound]
- metabolised at 54 h, 20 μM (NEP 24.11; isolated enzyme neprilysin): 98.3%
